Data reported in ChEMBL document CHEMBL4507279, “Data for DCP probe BI-9627” (2021).

What was measured:
[1] = tested on: Tyrosine-protein kinase ABL1 (Homo sapiens), P00519 [F317I]; settings: Compound concentration 1000.0 nM
[2] = biological target: Activin receptor type-1 (Homo sapiens) (UniProt Q04771); settings: Compound concentration 1000.0 nM
[3] = biological target: 5'-AMP-activated protein kinase catalytic subunit alpha-2 (Homo sapiens) (UniProt P54646); settings: Compound concentration 1000.0 nM
[4] = biological target: NUAK family SNF1-like kinase 1 (Homo sapiens) (UniProt O60285); settings: Compound concentration 1000.0 nM
[5] = biological target: Aurora kinase B (Homo sapiens) (UniProt Q96GD4); settings: Compound concentration 1000.0 nM
[6] = biological target: Bone morphogenetic protein receptor type-2 (Homo sapiens) (UniProt Q13873); settings: Compound concentration 1000.0 nM
[7] = biological target: Cyclin-dependent kinase 8 (Homo sapiens) (UniProt P49336); settings: Compound concentration 1000.0 nM
[8] = biological target: Tyrosine-protein kinase CSK (Homo sapiens) (UniProt P41240); settings: Compound concentration 1000.0 nM
[9] = biological target: Discoidin domain-containing receptor 2 (Homo sapiens) (UniProt Q16832); settings: Compound concentration 1000.0 nM
[10] = biological target: Serine/threonine-protein kinase 17A (Homo sapiens) (UniProt Q9UEE5); settings: Compound concentration 1000.0 nM
[11] = biological target: Eukaryotic translation initiation factor 2-alpha kinase 1 (Homo sapiens) (UniProt Q9BQI3); settings: Compound concentration 1000.0 nM
[12] = biological target: Ephrin type-A receptor 3 (Homo sapiens) (UniProt P29320); settings: Compound concentration 1000.0 nM
[13] = biological target: Ephrin type-A receptor 5 (Homo sapiens) (UniProt P54756); settings: Compound concentration 1000.0 nM
[14] = biological target: Mitogen-activated protein kinase 1 (Homo sapiens) (UniProt P28482); settings: Compound concentration 1000.0 nM
[15] = biological target: Receptor-type tyrosine-protein kinase FLT3 (Homo sapiens) (UniProt P36888); settings: Compound concentration 1000.0 nM
[16] = biological target: Tyrosine-protein kinase FRK (Homo sapiens) (UniProt P42685); settings: Compound concentration 1000.0 nM
[17] = biological target: Rhodopsin kinase GRK1 (Homo sapiens) (UniProt Q15835); settings: Compound concentration 1000.0 nM
[18] = biological target: Inhibitor of nuclear factor kappa-B kinase subunit beta (Homo sapiens) (UniProt O14920); settings: Compound concentration 1000.0 nM
[19] = biological target: Tyrosine-protein kinase ITK/TSK (Homo sapiens) (UniProt Q08881); settings: Compound concentration 1000.0 nM
[20] = biological target: Serine/threonine-protein kinase LATS1 (Homo sapiens) (UniProt O95835); settings: Compound concentration 1000.0 nM
[21] = biological target: Serine/threonine-protein kinase 10 (Homo sapiens) (UniProt O94804); settings: Compound concentration 1000.0 nM
[22] = biological target: Serine/threonine-protein kinase MARK1 (Homo sapiens) (UniProt Q9P0L2); settings: Compound concentration 1000.0 nM
[23] = biological target: Myosin light chain kinase (Homo sapiens) (UniProt Q32MK0); settings: Compound concentration 1000.0 nM
[24] = biological target: Serine/threonine-protein kinase 26 (Homo sapiens) (UniProt Q9P289); settings: Compound concentration 1000.0 nM
[25] = biological target: Serine/threonine-protein kinase mTOR (Homo sapiens) (UniProt P42345); settings: Compound concentration 1000.0 nM
[26] = biological target: Myosin light chain kinase 2, skeletal/cardiac muscle (Homo sapiens) (UniProt Q9H1R3); settings: Compound concentration 1000.0 nM
[27] = biological target: Myosin-IIIa (Homo sapiens) (UniProt Q8NEV4); settings: Compound concentration 1000.0 nM
[28] = biological target: Serine/threonine-protein kinase Nek9 (Homo sapiens) (UniProt Q8TD19); settings: Compound concentration 1000.0 nM
[29] = biological target: Mitogen-activated protein kinase 12 (Homo sapiens) (UniProt P53778); settings: Compound concentration 1000.0 nM
[30] = biological target: Platelet-derived growth factor receptor beta (Homo sapiens) (UniProt P09619); settings: Compound concentration 1000.0 nM
[31] = biological target: Phosphatidylinositol 4,5-bisphosphate 3-kinase catalytic subunit alpha isoform (Homo sapiens) (UniProt P42336); settings: Compound concentration 1000.0 nM
[32] = tested on: Phosphatidylinositol 4,5-bisphosphate 3-kinase catalytic subunit alpha isoform (Homo sapiens), P42336 [E545K]; settings: Compound concentration 1000.0 nM
[33] = tested on: Phosphatidylinositol 4,5-bisphosphate 3-kinase catalytic subunit alpha isoform (Homo sapiens), P42336 [M1043I]; settings: Compound concentration 1000.0 nM
[34] = biological target: Serine/threonine-protein kinase PknB (Mycobacterium tuberculosis) (UniProt P9WI81); settings: Compound concentration 1000.0 nM
[35] = biological target: Serine/threonine-protein kinase tousled-like 2 (Homo sapiens) (UniProt Q86UE8); settings: Compound concentration 1000.0 nM
[36] = biological target: Testis-specific serine/threonine-protein kinase 1 (Homo sapiens) (UniProt Q9BXA7); settings: Compound concentration 1000.0 nM
[37] = biological target: Tyrosine-protein kinase ZAP-70 (Homo sapiens) (UniProt P43403); settings: Compound concentration 1000.0 nM
[38] = biological target: Histamine H4 receptor (Homo sapiens) (UniProt Q9H3N8); settings: Compound concentration 10.0 uM
[39] = biological target: T1, Alpha-2A adrenergic receptor (Homo sapiens) (UniProt P08913); settings: Compound concentration 10.0 uM
T1 sequence (whole entry): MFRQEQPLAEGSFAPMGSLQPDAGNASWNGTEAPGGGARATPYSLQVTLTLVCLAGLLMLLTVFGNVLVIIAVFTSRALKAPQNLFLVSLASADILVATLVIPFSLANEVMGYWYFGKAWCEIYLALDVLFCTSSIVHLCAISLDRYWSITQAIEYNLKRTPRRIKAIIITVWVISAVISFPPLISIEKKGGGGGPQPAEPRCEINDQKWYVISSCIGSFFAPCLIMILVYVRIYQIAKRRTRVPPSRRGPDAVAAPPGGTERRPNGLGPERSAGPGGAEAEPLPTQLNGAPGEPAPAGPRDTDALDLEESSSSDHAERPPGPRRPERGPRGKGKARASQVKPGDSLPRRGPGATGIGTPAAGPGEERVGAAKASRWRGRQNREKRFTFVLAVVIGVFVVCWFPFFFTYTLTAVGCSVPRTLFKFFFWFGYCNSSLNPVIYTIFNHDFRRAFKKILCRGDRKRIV

Chain of NUAK family SNF1-like kinase 1 (Homo sapiens) (O60285 whole entry): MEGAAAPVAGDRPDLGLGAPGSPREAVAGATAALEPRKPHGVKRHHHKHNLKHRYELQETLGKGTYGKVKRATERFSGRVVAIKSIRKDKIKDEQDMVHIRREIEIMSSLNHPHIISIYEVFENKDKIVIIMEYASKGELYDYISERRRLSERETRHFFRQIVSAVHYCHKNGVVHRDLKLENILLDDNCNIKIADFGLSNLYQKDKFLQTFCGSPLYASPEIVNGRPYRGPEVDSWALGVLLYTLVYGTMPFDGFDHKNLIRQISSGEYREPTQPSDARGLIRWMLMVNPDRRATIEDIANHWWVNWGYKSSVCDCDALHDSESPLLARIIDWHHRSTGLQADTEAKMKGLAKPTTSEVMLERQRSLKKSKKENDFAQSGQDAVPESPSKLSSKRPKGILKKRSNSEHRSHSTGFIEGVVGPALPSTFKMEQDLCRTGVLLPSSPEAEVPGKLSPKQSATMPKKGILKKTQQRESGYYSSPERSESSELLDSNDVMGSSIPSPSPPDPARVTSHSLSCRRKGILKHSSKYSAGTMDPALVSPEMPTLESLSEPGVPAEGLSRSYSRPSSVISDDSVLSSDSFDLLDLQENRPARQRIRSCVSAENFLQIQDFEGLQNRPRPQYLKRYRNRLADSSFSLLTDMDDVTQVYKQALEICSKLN
Chain of Myosin light chain kinase 2, skeletal/cardiac muscle (Homo sapiens) (Q9H1R3 whole entry): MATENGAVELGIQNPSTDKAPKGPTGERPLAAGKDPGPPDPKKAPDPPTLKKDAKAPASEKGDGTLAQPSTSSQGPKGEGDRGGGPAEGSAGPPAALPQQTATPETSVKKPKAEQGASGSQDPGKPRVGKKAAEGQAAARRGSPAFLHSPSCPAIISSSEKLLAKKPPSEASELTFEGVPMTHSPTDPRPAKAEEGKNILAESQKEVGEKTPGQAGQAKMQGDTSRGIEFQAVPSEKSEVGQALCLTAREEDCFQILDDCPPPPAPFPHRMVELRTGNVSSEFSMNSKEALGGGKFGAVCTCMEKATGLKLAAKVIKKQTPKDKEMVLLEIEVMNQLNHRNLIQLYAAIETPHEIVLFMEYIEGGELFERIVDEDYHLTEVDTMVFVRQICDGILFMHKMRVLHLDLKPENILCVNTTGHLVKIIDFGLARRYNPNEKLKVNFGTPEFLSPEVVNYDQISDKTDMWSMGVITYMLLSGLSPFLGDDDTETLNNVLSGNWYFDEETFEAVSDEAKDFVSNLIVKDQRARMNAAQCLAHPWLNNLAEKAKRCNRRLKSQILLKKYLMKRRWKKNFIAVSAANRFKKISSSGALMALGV
Chain of Serine/threonine-protein kinase 10 (Homo sapiens) (O94804 whole entry, looked up): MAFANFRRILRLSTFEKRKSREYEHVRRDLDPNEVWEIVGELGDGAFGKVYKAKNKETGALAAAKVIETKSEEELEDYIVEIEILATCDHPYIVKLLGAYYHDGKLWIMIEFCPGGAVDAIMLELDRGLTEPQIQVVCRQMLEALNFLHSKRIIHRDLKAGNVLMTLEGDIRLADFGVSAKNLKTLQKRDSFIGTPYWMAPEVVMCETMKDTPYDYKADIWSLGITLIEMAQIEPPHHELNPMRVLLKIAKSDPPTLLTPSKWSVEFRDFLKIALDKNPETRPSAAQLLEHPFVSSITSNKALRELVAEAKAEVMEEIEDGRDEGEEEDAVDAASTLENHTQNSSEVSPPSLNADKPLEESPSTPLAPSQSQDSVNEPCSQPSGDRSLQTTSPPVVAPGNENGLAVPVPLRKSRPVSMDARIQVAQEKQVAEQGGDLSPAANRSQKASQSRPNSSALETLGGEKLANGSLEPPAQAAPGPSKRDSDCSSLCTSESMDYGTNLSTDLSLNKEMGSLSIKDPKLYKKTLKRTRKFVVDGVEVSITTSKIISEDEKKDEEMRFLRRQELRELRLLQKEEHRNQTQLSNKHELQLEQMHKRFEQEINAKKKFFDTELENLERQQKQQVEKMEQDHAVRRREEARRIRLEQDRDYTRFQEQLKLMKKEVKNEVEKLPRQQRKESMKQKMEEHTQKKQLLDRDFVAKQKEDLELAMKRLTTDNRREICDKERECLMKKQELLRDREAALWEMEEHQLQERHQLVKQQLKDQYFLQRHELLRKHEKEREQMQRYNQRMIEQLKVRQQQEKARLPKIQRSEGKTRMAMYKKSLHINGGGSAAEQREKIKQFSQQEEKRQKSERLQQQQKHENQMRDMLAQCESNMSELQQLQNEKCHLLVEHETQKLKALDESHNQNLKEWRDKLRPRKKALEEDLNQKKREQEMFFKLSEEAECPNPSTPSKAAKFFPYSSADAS
Chain of Serine/threonine-protein kinase MARK1 (Homo sapiens) (Q9P0L2 whole entry, looked up): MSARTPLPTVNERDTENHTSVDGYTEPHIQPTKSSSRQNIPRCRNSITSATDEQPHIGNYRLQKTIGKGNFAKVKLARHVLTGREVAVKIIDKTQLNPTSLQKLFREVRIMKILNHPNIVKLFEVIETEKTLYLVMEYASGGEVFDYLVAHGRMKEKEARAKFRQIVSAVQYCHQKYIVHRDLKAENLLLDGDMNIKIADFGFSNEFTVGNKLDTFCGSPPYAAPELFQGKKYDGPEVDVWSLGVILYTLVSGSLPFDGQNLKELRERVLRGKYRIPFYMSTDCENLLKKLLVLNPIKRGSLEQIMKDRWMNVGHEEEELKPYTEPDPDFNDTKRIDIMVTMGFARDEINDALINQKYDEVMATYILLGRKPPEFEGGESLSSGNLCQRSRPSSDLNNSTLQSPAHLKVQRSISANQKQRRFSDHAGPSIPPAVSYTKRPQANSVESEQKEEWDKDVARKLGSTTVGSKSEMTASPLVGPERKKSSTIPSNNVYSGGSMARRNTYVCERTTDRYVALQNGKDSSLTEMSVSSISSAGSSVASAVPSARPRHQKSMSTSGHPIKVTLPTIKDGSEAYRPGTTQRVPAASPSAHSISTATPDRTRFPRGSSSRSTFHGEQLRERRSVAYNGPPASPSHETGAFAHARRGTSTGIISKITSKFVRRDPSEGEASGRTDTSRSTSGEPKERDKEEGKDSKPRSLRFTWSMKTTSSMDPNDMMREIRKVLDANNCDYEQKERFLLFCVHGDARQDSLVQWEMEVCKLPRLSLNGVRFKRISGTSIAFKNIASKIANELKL
Chain of Phosphatidylinositol 4,5-bisphosphate 3-kinase catalytic subunit alpha isoform (Homo sapiens), P42336 [M1043I] (P42336 whole entry M1043I, canonical isoform): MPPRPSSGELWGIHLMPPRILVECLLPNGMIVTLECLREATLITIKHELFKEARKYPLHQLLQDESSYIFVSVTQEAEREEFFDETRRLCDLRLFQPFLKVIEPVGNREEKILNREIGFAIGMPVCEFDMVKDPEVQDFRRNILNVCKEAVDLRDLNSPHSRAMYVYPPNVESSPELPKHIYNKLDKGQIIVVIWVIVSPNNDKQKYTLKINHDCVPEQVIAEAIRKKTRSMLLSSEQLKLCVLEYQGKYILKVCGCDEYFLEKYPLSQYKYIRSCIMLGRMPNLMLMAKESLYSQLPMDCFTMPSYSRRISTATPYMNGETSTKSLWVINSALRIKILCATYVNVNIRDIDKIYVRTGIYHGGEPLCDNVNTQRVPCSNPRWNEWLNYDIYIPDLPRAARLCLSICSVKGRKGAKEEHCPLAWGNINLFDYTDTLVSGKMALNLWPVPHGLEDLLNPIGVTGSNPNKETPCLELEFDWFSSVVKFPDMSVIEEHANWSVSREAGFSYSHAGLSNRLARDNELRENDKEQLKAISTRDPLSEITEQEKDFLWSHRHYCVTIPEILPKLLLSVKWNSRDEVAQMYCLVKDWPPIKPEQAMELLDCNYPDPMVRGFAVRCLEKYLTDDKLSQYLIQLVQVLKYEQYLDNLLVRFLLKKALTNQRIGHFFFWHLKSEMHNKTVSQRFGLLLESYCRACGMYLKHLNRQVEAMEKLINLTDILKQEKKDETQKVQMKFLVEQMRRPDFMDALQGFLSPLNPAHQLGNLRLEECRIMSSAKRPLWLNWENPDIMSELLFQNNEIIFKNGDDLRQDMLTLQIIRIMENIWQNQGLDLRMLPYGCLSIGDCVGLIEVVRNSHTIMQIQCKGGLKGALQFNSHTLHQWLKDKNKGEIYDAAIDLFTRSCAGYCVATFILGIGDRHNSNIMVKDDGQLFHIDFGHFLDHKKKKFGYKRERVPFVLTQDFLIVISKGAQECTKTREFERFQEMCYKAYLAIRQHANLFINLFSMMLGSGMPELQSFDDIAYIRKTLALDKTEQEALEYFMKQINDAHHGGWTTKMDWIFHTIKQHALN
Chain of Serine/threonine-protein kinase tousled-like 2 (Homo sapiens) (Q86UE8 whole entry, looked up): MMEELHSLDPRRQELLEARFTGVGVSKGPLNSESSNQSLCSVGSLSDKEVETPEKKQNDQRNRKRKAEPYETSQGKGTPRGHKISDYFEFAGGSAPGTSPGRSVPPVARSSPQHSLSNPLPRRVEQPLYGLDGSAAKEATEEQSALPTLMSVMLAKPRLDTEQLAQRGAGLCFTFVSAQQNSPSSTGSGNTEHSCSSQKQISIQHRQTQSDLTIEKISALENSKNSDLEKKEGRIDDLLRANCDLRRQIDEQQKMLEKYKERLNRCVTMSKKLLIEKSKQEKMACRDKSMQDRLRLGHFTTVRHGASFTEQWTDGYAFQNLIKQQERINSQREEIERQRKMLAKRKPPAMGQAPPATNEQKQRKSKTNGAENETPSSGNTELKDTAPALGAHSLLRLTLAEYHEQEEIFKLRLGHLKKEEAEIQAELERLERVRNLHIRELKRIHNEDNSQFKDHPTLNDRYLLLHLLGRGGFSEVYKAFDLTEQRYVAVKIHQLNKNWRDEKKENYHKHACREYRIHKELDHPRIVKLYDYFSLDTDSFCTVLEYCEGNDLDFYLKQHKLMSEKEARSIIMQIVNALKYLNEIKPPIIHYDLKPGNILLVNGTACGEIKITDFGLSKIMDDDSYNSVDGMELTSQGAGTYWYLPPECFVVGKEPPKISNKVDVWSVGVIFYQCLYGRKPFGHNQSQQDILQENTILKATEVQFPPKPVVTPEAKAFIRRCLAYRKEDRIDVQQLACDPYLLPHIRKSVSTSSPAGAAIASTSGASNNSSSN

CC(=O)N1CCC(c2ccc(C(=O)NC3=NCCN3)cc2C(F)(F)F)CC1 [BI 0054]
inactive: residual activity [1] 77% | residual activity [2] 100% | residual activity [3] 100% | residual activity [4] 98% | residual activity [5] 100% | residual activity [6] 100% | residual activity [7] 100% | residual activity [8] 100% | residual activity [9] 96% | residual activity [10] 100% | residual activity [11] 83% | residual activity [12] 95% | residual activity [13] 100% | residual activity [14] 100% | residual activity [15] 100% | residual activity [16] 97% | residual activity [17] 95% | residual activity [18] 85% | residual activity [19] 91% | residual activity [20] 93% | residual activity [21] 100% | residual activity [22] 100% | residual activity [23] 100% | residual activity [24] 89% | residual activity [25] 67% | residual activity [26] 100% | residual activity [27] 100% | residual activity [28] 100% | residual activity [29] 55% | residual activity [30] 95% | residual activity [31] 100% | residual activity [32] 87% | residual activity [33] 100% | residual activity [34] 100% | residual activity [35] 100% | residual activity [36] 100% | residual activity [37] 97% | inhibition [38] 9.81% | inhibition [39] 4.92%

CC(=O)N1CCC(c2ccc(C(=O)NC(=N)N)cc2C(F)(F)F)CC1 [BI 9627]
inactive: residual activity [1] 92% | residual activity [2] 100% | residual activity [3] 100% | residual activity [4] 100% | residual activity [5] 100% | residual activity [6] 100% | residual activity [7] 100% | residual activity [8] 100% | residual activity [9] 100% | residual activity [10] 100% | residual activity [11] 100% | residual activity [12] 100% | residual activity [13] 99% | residual activity [14] 96% | residual activity [15] 100% | residual activity [16] 100% | residual activity [17] 98% | residual activity [18] 100% | residual activity [19] 100% | residual activity [20] 72% | residual activity [21] 94% | residual activity [22] 100% | residual activity [23] 100% | residual activity [24] 97% | residual activity [25] 100% | residual activity [26] 85% | residual activity [27] 100% | residual activity [28] 100% | residual activity [29] 77% | residual activity [30] 100% | residual activity [31] 100% | residual activity [32] 76% | residual activity [33] 100% | residual activity [34] 100% | residual activity [35] 100% | residual activity [36] 100% | residual activity [37] 100% | inhibition [38] 7.11% | inhibition [39] -0.34%
